Results on 1 molecule are retold here after BindingDB's records for PubMed 38714043 (Sichuan University).

The structures appear in SMILES notation.

This assay addresses T1, Tyrosine-protein kinase receptor UFO (Homo sapiens, UniProt P30530).
T1 sequence (P30530 whole entry): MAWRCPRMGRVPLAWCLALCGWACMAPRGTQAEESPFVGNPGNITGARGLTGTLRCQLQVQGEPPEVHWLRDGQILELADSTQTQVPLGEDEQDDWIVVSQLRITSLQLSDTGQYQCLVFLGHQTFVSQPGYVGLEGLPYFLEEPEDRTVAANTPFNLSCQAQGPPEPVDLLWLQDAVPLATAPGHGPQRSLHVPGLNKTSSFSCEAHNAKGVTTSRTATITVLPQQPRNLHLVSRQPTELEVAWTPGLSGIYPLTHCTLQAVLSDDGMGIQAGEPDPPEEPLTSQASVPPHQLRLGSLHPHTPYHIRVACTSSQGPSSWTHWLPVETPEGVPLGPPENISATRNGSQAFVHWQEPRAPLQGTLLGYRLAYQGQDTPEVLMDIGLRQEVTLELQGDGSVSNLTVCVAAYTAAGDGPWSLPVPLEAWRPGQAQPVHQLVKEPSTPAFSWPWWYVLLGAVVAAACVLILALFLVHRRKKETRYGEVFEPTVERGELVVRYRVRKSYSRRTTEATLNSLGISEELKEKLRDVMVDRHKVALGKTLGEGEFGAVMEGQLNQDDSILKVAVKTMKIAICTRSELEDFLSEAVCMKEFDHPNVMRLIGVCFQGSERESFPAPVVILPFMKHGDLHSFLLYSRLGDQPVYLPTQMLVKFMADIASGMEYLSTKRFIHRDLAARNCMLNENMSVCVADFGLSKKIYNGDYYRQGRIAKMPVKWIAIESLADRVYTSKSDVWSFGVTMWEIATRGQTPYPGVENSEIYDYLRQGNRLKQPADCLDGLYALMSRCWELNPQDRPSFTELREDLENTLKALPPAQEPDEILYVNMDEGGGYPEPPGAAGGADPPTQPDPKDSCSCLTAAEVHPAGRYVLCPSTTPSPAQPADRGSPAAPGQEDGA
Nature of the assay: Inhibition of AXL (unknown origin).

Broadly, the IC50 is the point on the concentration scale where inhibition reaches its midpoint. High values mean weaker potency, low ones greater potency. The molecule `COc1cc2ncnc(Oc3ccc(NC(=O)c4c5n(n(-c6ccccc6)c4=O)CCCC5)cc3)c2cc1OC` showed an IC50 of 44 nM.
